Experimental data published in patent US9513294B2, “Megastokes amino-triazolyl-BODIPY compounds and applications to live neuron staining and human serum albumin FA1 drug site probing” (National University of Singapore, priority 2012, dated 2016).
Values belong to the compound of their own block, whether it stands above or below them.

Legend:
[1] = Quantum yield measurements versus Acridine Yellow in EtOH; format: physicochemical; conditions: for φ (quantum yield): excitation 460 nm; for φ (%): quantum yield
Method in brief: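 Emission areas integrated over 510–700 nm were compared with Acridine Yellow in ethanol (Φ=0.47), all excited at 460 nm. The comparative equation was normalized to excitation-wavelength absorbance and solvent refractive index.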

[2] = Absorbance and fluorescence emission spectra (SpectraMax M2); format: physicochemical; conditions: for λmax Absorp. (nm) / λmax Emission (nm): MKCA compound library; for λmax Absorp. (nm) / λmax Abs. (nm): absorbance maximum; for λmax Emission (nm) / λmax Em. (nm): fluorescence emission maximum; for λmax Abs. (nm) / λmax Em. (nm): MKAC compound library
Method in brief: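 Spectroscopic data, including quantum yields, were recorded with a SpectraMax M2 instrument and analysed in GraphPrism.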

φ (quantum yield) ([1]; MK library, Table 5): 0.86%
λmax Absorp. ([2]; MK library, Table 5): 473 nm
λmax Emission ([2]; MK library, Table 5): 563 nm
Compound: CCCCCC(O)c1cn(-c2ccc3n2[B-](F)(F)[N+]2=C(NCc4cc(OC)ccc4OC)C=CC2=C3c2ccc(N)cc2)nn1 (stereo not drawn) [MK181-69]

φ (quantum yield) ([1]; MK library, Table 5): 0.88%
λmax Absorp. ([2]; MK library, Table 5): 472 nm
λmax Emission ([2]; MK library, Table 5): 568 nm
Compound: COc1ccc(OC)c(CNC2=[N+]3C(=C(c4ccc(N)cc4)c4ccc(-n5cc(CO)nn5)n4[B-]3(F)F)C=C2)c1 [MK181-70]

φ (quantum yield) ([1]; MK library, Table 5): 0.13%
λmax Absorp. ([2]; MK library, Table 5): 480 nm
λmax Emission ([2]; MK library, Table 5): 585 nm
Compound: Nc1ccc(C2=C3C=CC(N4CCc5ccccc5C4)=[N+]3[B-](F)(F)n3c2ccc3-n2cc(CCc3ccccc3)nn2)cc1 [MK66-19]

φ (%) ([1]; MKCA compound library): 3.33%
λmax Absorp. (nm) [2]: 469 nm
λmax Emission (nm) [2]: 587 nm
Compound: O=C(CCl)Nc1ccc(C2=C3C=CC(N4CCc5ccccc5C4)=[N+]3[B-](F)(F)n3c2ccc3-n2cc(C3CC3)nn2)cc1 [MKCA66-4]

φ (%) ([1]; MKAC compound library): 4.18%
λmax Abs. (nm) [2]: 467 nm
λmax Em. (nm) [2]: 578 nm
Compound: CC(=O)Nc1ccc(C2=C3C=CC(N(C)Cc4ccccc4)=[N+]3[B-](F)(F)n3c2ccc3-n2cc(C3CCCC3)nn2)cc1 [MKAC195-5]

φ (quantum yield) ([1]; BDCCA library, Table 4): 0.7%
λmax Absorp. ([2]; BDCCA library, Table 4): 462 nm
λmax Emission ([2]; BDCCA library, Table 4): 581 nm
Compound: O=C(CCl)Nc1ccc(C2=C3C=CC(N4CCCCC4)=[N+]3[B-](F)(F)n3c2ccc3-n2cc(-c3ccc(F)c(F)c3)nn2)cc1 [BDCCA-16]

φ (%) ([1]; MKCA compound library): 21.21%
λmax Absorp. (nm) [2]: 465 nm
λmax Emission (nm) [2]: 564 nm
Compound: COc1ccc(OC)c(CNC2=[N+]3C(=C(c4ccc(NC(=O)CCl)cc4)c4ccc(-n5cc(CC(C)C)nn5)n4[B-]3(F)F)C=C2)c1 [MKCA181-43]

φ (%) ([1]; MKAC compound library): 29.05%
λmax Abs. (nm) [2]: 464 nm
λmax Em. (nm) [2]: 562 nm
Compound: CCOc1ccccc1CNC1=[N+]2C(=C(c3ccc(NC(C)=O)cc3)c3ccc(-n4cc(CCc5ccccc5)nn4)n3[B-]2(F)F)C=C1 [MKAC103-19]

φ (quantum yield) ([1]; MK library, Table 5): 1.92%
λmax Absorp. ([2]; MK library, Table 5): 474 nm
λmax Emission ([2]; MK library, Table 5): 565 nm
Compound: Cc1ccccc1CNC1=[N+]2C(=C(c3ccc(N)cc3)c3ccc(-n4cc(CO)nn4)n3[B-]2(F)F)C=C1 [MK101-70]

φ (quantum yield) ([1]; MK library, Table 5): 0.33%
λmax Absorp. ([2]; MK library, Table 5): 471 nm
λmax Emission ([2]; MK library, Table 5): 571 nm
Compound: CC(C)Cc1cn(-c2ccc3n2[B-](F)(F)[N+]2=C(N4CCCC4)C=CC2=C3c2ccc(N)cc2)nn1 [MK215-43]

φ (%) ([1]; MKCA compound library): 33.49%
λmax Absorp. (nm) [2]: 465 nm
λmax Emission (nm) [2]: 562 nm
Compound: CCCCCC(O)c1cn(-c2ccc3n2[B-](F)(F)[N+]2=C(NCc4ccccc4OCC)C=CC2=C3c2ccc(NC(=O)CCl)cc2)nn1 (stereo not drawn) [MKCA103-69]

φ (%) ([1]; MKAC compound library): 3.41%
λmax Abs. (nm) [2]: 462 nm
λmax Em. (nm) [2]: 567 nm
Compound: CC(=O)Nc1ccc(C2=C3C=CC(N4CCCC4)=[N+]3[B-](F)(F)n3c2ccc3-n2cc(CCc3ccccc3)nn2)cc1 [MKAC215-19]

φ (quantum yield) ([1]; BDCCA library, Table 4): 2.7%
λmax Absorp. ([2]; BDCCA library, Table 4): 463 nm
λmax Emission ([2]; BDCCA library, Table 4): 555 nm
Compound: Cc1cccc(-c2cn(-c3ccc4n3[B-](F)(F)[N+]3=C(N5CCCCC5)C=CC3=C4c3ccc(NC(=O)CCl)cc3)nn2)c1 [BDCCA-45]

φ (quantum yield) ([1]; MK library, Table 5): 0.34%
λmax Absorp. ([2]; MK library, Table 5): 476 nm
λmax Emission ([2]; MK library, Table 5): 566 nm
Compound: CN(Cc1ccccc1)C1=[N+]2C(=C(c3ccc(N)cc3)c3ccc(-n4cc(C5CC5)nn4)n3[B-]2(F)F)C=C1 [MK195-4]

φ (quantum yield) ([1]; MK library, Table 5): 0.63%
λmax Absorp. ([2]; MK library, Table 5): 476 nm
λmax Emission ([2]; MK library, Table 5): 562 nm
Compound: CCCC(C)c1cn(-c2ccc3n2[B-](F)(F)[N+]2=C(NCc4cc(F)cc(F)c4)C=CC2=C3c2ccc(N)cc2)nn1 (stereo not drawn) [MK412-3]

φ (quantum yield) ([1]; BDC library, Table 2): 0.24%
λmax Absorp. ([2]; BDC library, Table 2): 473 nm
λmax Emission ([2]; BDC library, Table 2): 582 nm
Compound: Nc1ccc(C2=C3C=CC(N4CCCCC4)=[N+]3[B-](F)(F)n3c2ccc3-n2cc(C3CCCCC3)nn2)cc1 [BDC-6]

φ (%) ([1]; MKCA compound library): 3.38%
λmax Absorp. (nm) [2]: 469 nm
λmax Emission (nm) [2]: 586 nm
Compound: CCCCCC(O)c1cn(-c2ccc3n2[B-](F)(F)[N+]2=C(N4CCc5ccccc5C4)C=CC2=C3c2ccc(NC(=O)CCl)cc2)nn1 (stereo not drawn) [MKCA66-69]

φ (quantum yield) ([1]; BDCCA library, Table 4): 1.3%
λmax Absorp. ([2]; BDCCA library, Table 4): 467 nm
λmax Emission ([2]; BDCCA library, Table 4): 577 nm
Compound: CCCCc1cn(-c2ccc3n2[B-](F)(F)[N+]2=C(N4CCCCC4)C=CC2=C3c2ccc(NC(=O)CCl)cc2)nn1 [BDCCA-42]

φ (%) ([1]; MKAC compound library): 10.37%
λmax Abs. (nm) [2]: 464 nm
λmax Em. (nm) [2]: 563 nm
Compound: COc1ccc(OC)c(CNC2=[N+]3C(=C(c4ccc(NC(C)=O)cc4)c4ccc(-n5cc(C6CCCC6)nn5)n4[B-]3(F)F)C=C2)c1 [MKAC181-5]

φ (quantum yield) ([1]; MK library, Table 5): 0.24%
λmax Absorp. ([2]; MK library, Table 5): 471 nm
λmax Emission ([2]; MK library, Table 5): 583 nm
Compound: CN(Cc1ccccc1)Cc1cn(-c2ccc3n2[B-](F)(F)[N+]2=C(N4CCCC4)C=CC2=C3c2ccc(N)cc2)nn1 [MK215-18]
